BindingDB's records for doi:10.7270/Q2D798VP (Broad Institute, 2009)

Molecular target: T1, Zinc finger protein mex-5 (Caenorhabditis elegans, UniProt Q9XUB2)
T1 sequence (Q9XUB2 whole entry): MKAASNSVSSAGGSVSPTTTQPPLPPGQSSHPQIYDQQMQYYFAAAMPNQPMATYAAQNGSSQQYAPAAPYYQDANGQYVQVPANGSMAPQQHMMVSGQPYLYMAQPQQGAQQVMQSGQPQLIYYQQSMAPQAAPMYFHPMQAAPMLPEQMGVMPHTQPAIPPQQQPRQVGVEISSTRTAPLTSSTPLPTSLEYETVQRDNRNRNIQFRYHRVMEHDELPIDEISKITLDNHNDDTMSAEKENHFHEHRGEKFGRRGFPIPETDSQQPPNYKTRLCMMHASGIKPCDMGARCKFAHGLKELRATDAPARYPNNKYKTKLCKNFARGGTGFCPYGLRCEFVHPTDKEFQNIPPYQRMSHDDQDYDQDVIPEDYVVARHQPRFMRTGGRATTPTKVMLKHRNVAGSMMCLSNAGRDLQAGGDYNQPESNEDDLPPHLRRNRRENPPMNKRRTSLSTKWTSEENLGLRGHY
Test: potency of MEX-5 RNA-binding blockers – biochemical, C. elegans, fluorescence polarization, dose response (AID 1960)

Compound	EC50 [µM]
CCC(=CC=C[C@@H]1C=C[C@@H]2CCC[C@H]2[C@@H]1C(=O)c1ccc[nH]1)[C@@H]1O[C@@H]([C@@H](C)C(=O)O)CC[C@@H]1C [2-(6-{1-ethyl-4-[4-(1H-pyrrol-2-ylcarbonyl)-2,3,3a,4,5,7a-hexahydro-1H-inden-5-yl]-1,3-butadienyl}-5-methyltetrahydro-2H-pyran-2-yl)propanoate]	1.16
COc1ccc(C2C3=C(CCCC3=O)OC(=N)C2C#N)c(OC)c1OC (stereo unspecified) [2-Amino-5-oxo-4-(2,3,4-trimethoxy-phenyl)-5,6,7,8-tetrahydro-4H-chromene-3-carbonitrile]	> 300
N#CC1C(=N)Oc2cc(O)c(Cl)cc2C1c1ccccc1F (stereo unspecified) [2-Amino-6-chloro-4-(2-fluoro-phenyl)-7-hydroxy-4H-chromene-3-carbonitrile]	> 300
O=CC(C=Nc1ccccn1)c1nc2ccccc2o1 (stereo unspecified) [2-Benzooxazol-2-yl-3-(pyridin-2-ylamino)-propenal]	> 300
CN1C(=O)/C(=C/c2ccc(-c3ccccc3[N+](=O)[O-])o2)S/C1=N/c1ccc(Cl)c(C(=O)O)c1 [2-Chloro-5-[3-methyl-5-[1-[5-(2-nitro-phenyl)-furan-2-yl]-meth-(Z)-ylidene]-4-oxo-thiazolidin-(2Z)-ylideneamino]-benzoic acid]	22.6
O=C(CC(=O)c1ccccc1)C(=O)NNC(=O)c1ccccc1[N+](=O)[O-] [2-Nitro-benzoic acid N'-(2-hydroxy-4-oxo-4-phenyl-but-2-enoyl)-hydrazide]	1.11
CC(N=Nc1ccc([N+](=O)[O-])cc1[N+](=O)[O-])c1cc2c(ccc3ccccc32)oc1=O (stereo unspecified) [2-[1-[(2,4-dinitrophenyl)hydrazinylidene]ethyl]-3-benzo[f][1]benzopyranone]	> 300
Oc1csc(N=NCc2cccs2)n1 [2-[2-(thiophen-2-ylmethylidene)hydrazinyl]-1,3-thiazol-4-one]	> 300
CCOc1cc(C=C2SC(Nc3ccc(CC)cc3)=NC2=O)ccc1OCC(=O)O [2-[2-ethoxy-4-[(Z)-[2-(4-ethylanilino)-4-oxo-1,3-thiazol-5-ylidene]methyl]phenoxy]acetic acid]	149
C=CCn1c(=O)c(=Cc2ccsc2)s/c1=C(\C#N)C(=O)NCCN1CCOCC1 [2-[3-allyl-4-keto-5-(3-thenylidene)thiazolidin-2-ylidene]-2-cyano-N-(2-morpholinoethyl)acetamide]	21.9
Cc1ccc(C(=O)C2C(=O)C(=O)N(Cc3ccco3)C2c2ccc(N(C)C)cc2)o1 (stereo unspecified) [2-[4-(dimethylamino)phenyl]-1-(2-furanylmethyl)-4-hydroxy-3-[(5-methyl-2-furanyl)-oxomethyl]-2H-pyrrol-5-one]	> 300
O=C(O)COc1ccc(C=Cc2nnc(-c3ccccc3O)[nH]2)cc1 [2-[4-[(E)-2-[(5Z)-5-(6-oxo-1-cyclohexa-2,4-dienylidene)-1,2-dihydro-1,2,4-triazol-3-yl]ethenyl]phenoxy]acetic acid]	0.945
COc1ccc(C2CC(=O)C(=CNCCCO)C(=O)C2)cc1 (stereo unspecified) [2-[(3-hydroxypropylamino)methylidene]-5-(4-methoxyphenyl)cyclohexane-1,3-dione]	37.9
Cc1ccc(NNC2=Nc3ccccc3C2=O)cc1 [2-[(4-methylphenyl)hydrazo]-3-indolone]	25.7
CC1(C)CC(=O)C2=C(C1)OC(=N)C(C#N)[C@@]21C(=O)N(CC(N)=O)c2ccccc21 (stereo partly drawn) [2-[(4R)-2-amino-3-cyano-2',5-diketo-7,7-dimethyl-spiro[6,8-dihydrochromene-4,3'-indoline]-1'-yl]acetamide]	> 300
N#CC1C(=N)OC2=C(C(=O)CCC2)[C@]12C(=O)N(CC(N)=O)c1ccccc12 (stereo partly drawn) [2-[(4R)-2-amino-3-cyano-2',5-diketo-spiro[7,8-dihydro-6H-chromene-4,3'-indoline]-1'-yl]acetamide]	> 300

Compound	EC50 [µM]
NC(=O)c1ccccc1N=CCC(=O)c1ccc(F)cc1 [2-[[(E)-3-(4-fluorophenyl)-3-keto-prop-1-enyl]amino]benzamide]	> 300
COc1cccc(CN2C(=O)C3(C4=C(CCCC4=O)OC(=N)C3C#N)c3ccccc32)c1 (stereo unspecified) [2-amino-1'-(3-methoxybenzyl)-2',5-dioxo-1',2',5,6,7,8-hexahydrospiro[chromene-4,3'-indole]-3-carbonitrile]	> 300
CC1(C)CC(=O)C2=C(C1)OC(=N)C(C#N)C21C(=O)N(CN2CCOCC2)c2ccccc21 (stereo unspecified) [2-amino-2',5-diketo-7,7-dimethyl-1'-(morpholinomethyl)spiro[6,8-dihydrochromene-4,3'-indoline]-3-carbonitrile]	> 300
COc1ccc(C2C3=C(CCCC3=O)OC(=N)C2C#N)cc1OC (stereo unspecified) [2-amino-4-(3,4-dimethoxyphenyl)-5-keto-4,6,7,8-tetrahydrochromene-3-carbonitrile]	> 300
COc1ccc(C2C3=C(CC(C)(C)CC3=O)OC(=N)C2C#N)cc1OC (stereo unspecified) [2-amino-4-(3,4-dimethoxyphenyl)-5-keto-7,7-dimethyl-6,8-dihydro-4H-chromene-3-carbonitrile]	> 300
N#CC1=C2CCCCC2C(c2cccnc2)C(C#N)(C#N)C1=N (stereo unspecified) [2-amino-4-(3-pyridinyl)-4a,5,6,7-tetrahydro-4H-naphthalene-1,3,3-tricarbonitrile]	17.5
COc1ccc(C2C3=C(CC(C)(C)CC3=O)OC(=N)C2C#N)cc1 (stereo unspecified) [2-amino-4-(4-methoxyphenyl)-7,7-dimethyl-5-oxo-6,8-dihydro-4H-1-benzopyran-3-carbonitrile]	> 300
COc1cc(OC)c(C2C3=C(CC(C)CC3=O)OC(=N)C2C#N)cc1OC (stereo unspecified) [2-amino-4-asaryl-5-keto-7-methyl-4,6,7,8-tetrahydrochromene-3-carbonitrile]	> 300
N#CC1C(=N)OC2=C(C(=O)CCC2)C1c1ccccc1 (stereo unspecified) [2-amino-5-keto-4-phenyl-4,6,7,8-tetrahydrochromene-3-carbonitrile]	> 300
COc1ccc(C2C3=C(CC(C)(C)CC3=O)OC(=N)C2C#N)c(OC)c1OC (stereo unspecified) [2-amino-5-keto-7,7-dimethyl-4-(2,3,4-trimethoxyphenyl)-6,8-dihydro-4H-chromene-3-carbonitrile]	> 300
CC1(C)CC(=O)C2=C(C1)OC(=N)C(C#N)C2c1ccccc1 (stereo unspecified) [2-amino-5-keto-7,7-dimethyl-4-phenyl-6,8-dihydro-4H-chromene-3-carbonitrile]	> 300
COc1ccc(C2C3=C(CC(C)CC3=O)OC(=N)C2C#N)c(OC)c1OC (stereo unspecified) [2-amino-5-keto-7-methyl-4-(2,3,4-trimethoxyphenyl)-4,6,7,8-tetrahydrochromene-3-carbonitrile]	> 300
CC1CCC2=C(C#N)C(=N)C(C#N)(C#N)C(c3cccs3)C2C1 (stereo unspecified) [2-amino-6-methyl-4-(2-thienyl)-4a,5,6,7-tetrahydro-4H-naphthalene-1,3,3-tricarbonitrile]	14.9
CCOc1cc(C2C(C(C)=O)=C(C)OC(=N)C2C#N)cc(Br)c1O (stereo unspecified) [2-azanyl-4-(3-bromanyl-5-ethoxy-4-oxidanyl-phenyl)-5-ethanoyl-6-methyl-4H-pyran-3-carbonitrile]	12.3
N#CC1C(=N)OC2=C(C(=O)CCC2)C1c1cc2c(cc1Br)OCO2 (stereo unspecified) [2-azanyl-4-(6-bromanyl-1,3-benzodioxol-5-yl)-5-oxidanylidene-4,6,7,8-tetrahydrochromene-3-carbonitrile]	> 300
